Measurements from US11613538B2, “Method of inhibiting or reducing a viral infection” (PTC Therapeutics, Inc., priority 2009, dated 2023).
pEC50: −log10 of the molar value.

Test system: hypoxia-induced VEGF production in HeLa cells
Experiment: cells
Assay type: cell-based, human
Conditions: Homo sapiens, HeLa

Row | Structure (SMILES) | pEC50
1 | CN1CCC(COc2ccc(C3c4[nH]c5ccc(Cl)cc5c4CCN3C(=O)Oc3ccc(Cl)cc3)cc2)CC1 (centres unmarked) [Compound 1099] | 7.40 to 8.10
2 | COC(=O)N1CCc2c([nH]c3ccc(Cl)cc23)C1c1ccc(OCCCN2CCOCC2)cc1 (centres unmarked) [Compound 1100] | 7.40 to 8.10
3 | COC(=O)N1CCc2c([nH]c3ccc(Cl)cc23)C1c1ccc(OCCCN2CCN(C)CC2)cc1 (centres unmarked) [Compound 1101] | 6.70 to 7.40
4 | CC(C)OC(=O)N1CCc2c([nH]c3ccc(Cl)cc23)C1c1ccc(OCCCN2CCOCC2)cc1 (centres unmarked) [Compound 1102] | > 8.10
5 | CC(C)OC(=O)N1CCc2c([nH]c3ccc(Cl)cc23)C1c1ccc(OCCCN2CCN(C)CC2)cc1 (centres unmarked) [Compound 1103] | 7.40 to 8.10
6 | CC(C)COC(=O)N1CCc2c([nH]c3ccc(Cl)cc23)C1c1ccc(OCCCN2CCN(C)CC2)cc1 (centres unmarked) [Compound 1104] | 7.40 to 8.10
7 | CCCOC(=O)N1CCc2c([nH]c3ccc(Cl)cc23)C1c1ccc(OCCCN2CCOCC2)cc1 (centres unmarked) [Compound 1105] | > 8.10
8 | O=C(OCc1ccccc1)N1CCc2c([nH]c3ccc(Cl)cc23)C1c1ccc(OCCCN2CCOCC2)cc1 (centres unmarked) [Compound 1106] | > 8.10
9 | O=C(OCc1ccccc1)N1CCc2c([nH]c3ccc(Cl)cc23)C1c1ccc(OCCCn2ccnn2)cc1 (centres unmarked) [Compound 1107] | > 8.10
10 | COc1ccc(OC(=O)N2CCc3c([nH]c4ccc(Cl)cc34)C2c2ccc(OCCCN3CCN(C)CC3)cc2)cc1 (centres unmarked) [Compound 1108] | 7.40 to 8.10
11 | COCCOC(=O)N1CCc2c([nH]c3ccc(Cl)cc23)C1c1ccc(OCCCO)cc1 (centres unmarked) [Compound 1109] | > 8.10
12 | O=C(Oc1ccc(Cl)cc1)N1CCc2c([nH]c3ccc(Cl)cc23)C1c1ccc(OCCCO)cc1 (centres unmarked) [Compound 1111] | > 8.10
13 | CCOC(=O)N1CCc2c([nH]c3ccc(Cl)cc23)C1c1cccc(OCCCN2CCN(C)CC2)c1 (centres unmarked) [Compound 1112] | < 6.00
14 | CN1CCN(CCCOc2cccc(C3c4[nH]c5ccc(Cl)cc5c4CCN3C(=O)Oc3ccc(F)cc3)c2)CC1 (centres unmarked) [Compound 1113] | 6.00 to 6.70
15 | CCOC(=O)N1CCc2c([nH]c3ccc(Cl)cc23)C1c1cccc(OCCCN2CCOCC2)c1 (centres unmarked) [Compound 1114] | 7.40 to 8.10
16 | O=C(Oc1ccc(F)cc1)N1CCc2c([nH]c3ccc(Cl)cc23)C1c1cccc(OCCCN2CCOCC2)c1 (centres unmarked) [Compound 1115] | 7.40 to 8.10
17 | CCOC(=O)N1CCc2c([nH]c3ccc(Cl)cc23)C1c1cccc(OCCCN2CCSCC2)c1 (centres unmarked) [Compound 1116] | 7.40 to 8.10
18 | O=C(Oc1ccc(F)cc1)N1CCc2c([nH]c3ccc(Cl)cc23)C1c1cccc(OCCCN2CCSCC2)c1 (centres unmarked) [Compound 1117] | 7.40 to 8.10
19 | CCOC(=O)N1CCc2c([nH]c3ccc(Cl)cc23)C1c1cccc(OCCCN(CCOC)CCOC)c1 (centres unmarked) [Compound 1118] | 6.00 to 6.70
20 | COCCN(CCCOc1cccc(C2c3[nH]c4ccc(Cl)cc4c3CCN2C(=O)Oc2ccc(F)cc2)c1)CCOC (centres unmarked) [Compound 1119] | 6.70 to 7.40
21 | CCOC(=O)N1CCc2c([nH]c3ccc(Cl)cc23)C1c1cccc(OCCCN(C)CCOC)c1 (centres unmarked) [Compound 1120] | 6.00 to 6.70
22 | COCCN(C)CCCOc1cccc(C2c3[nH]c4ccc(Cl)cc4c3CCN2C(=O)Oc2ccc(F)cc2)c1 (centres unmarked) [Compound 1121] | < 6.00
23 | CCOC(=O)N1CCc2c([nH]c3ccc(Cl)cc23)C1c1cccc(OCCCn2ccnc2)c1 (centres unmarked) [Compound 1122] | < 6.00
24 | CCOC(=O)N1CCc2c([nH]c3ccc(Cl)cc23)C1c1cccc(OCCCn2ccnn2)c1 (centres unmarked) [Compound 1124] | 6.00 to 6.70

Row | Structure (SMILES) | pEC50
25 | COc1cc(C2c3[nH]c4ccc(Cl)cc4c3CCN2C(=O)Oc2ccccc2)ccc1OCCCN1CCOCC1 (centres unmarked) [Compound 1130] | 7.40 to 8.10
26 | COc1ccc(OC(=O)N2CCc3c([nH]c4ccc(Cl)cc34)C2c2ccc(OCCCN3CCOCC3)c(OC)c2)cc1 (centres unmarked) [Compound 1131] | 7.40 to 8.10
27 | COc1cc(C2c3[nH]c4ccc(Cl)cc4c3CCN2C(=O)Oc2ccc(C)cc2)ccc1OCCCN1CCOCC1 (centres unmarked) [Compound 1132] | 7.40 to 8.10
28 | COc1cc(C2c3[nH]c4ccc(Cl)cc4c3CCN2C(=O)Oc2ccc(F)cc2)ccc1OCCCN1CCOCC1 (centres unmarked) [Compound 1133] | > 8.10
29 | Cc1ccc(C(=O)N2CCc3c([nH]c4ccc(Cl)cc34)C2c2ccc(OCCCn3cncn3)cc2)cc1 (centres unmarked) [Compound 1135] | 7.40 to 8.10
30 | O=C(c1ccc(Cl)cc1)N1CCc2c([nH]c3ccc(Cl)cc23)C1c1ccc(OCCCN2CCOCC2)cc1 (centres unmarked) [Compound 1136] | 6.70 to 7.40
31 | O=C(c1ccc(F)cc1)N1CCc2c([nH]c3ccc(Cl)cc23)C1c1ccc(OCCCn2cncn2)cc1 (centres unmarked) [Compound 1138] | 7.40 to 8.10
32 | O=C(c1ccccc1)N1CCc2c([nH]c3ccc(Cl)cc23)C1c1ccc(OCCCn2cncn2)cc1 (centres unmarked) [Compound 1139] | 7.40 to 8.10
33 | O=C(c1ccccc1)N1CCc2c([nH]c3ccc(Cl)cc23)C1c1ccc(OCCCN2CCOCC2)cc1 (centres unmarked) [Compound 1140] | 6.70 to 7.40
34 | O=C(C1CC1)N1CCc2c([nH]c3ccc(Cl)cc23)C1c1ccc(OCCCN2CCOCC2)cc1 (centres unmarked) [Compound 1141] | 6.70 to 7.40
35 | O=C(C1CC1)N1CCc2c([nH]c3ccc(Cl)cc23)C1c1ccc(OCCCn2cncn2)cc1 (centres unmarked) [Compound 1142] | 7.40 to 8.10
36 | COc1ccc(OC(=O)N2CCc3c([nH]c4ccc(Cl)cc34)C2c2ccc(OCCCn3nccn3)c(OC)c2)cc1 (centres unmarked) [Compound 1146] | 7.40 to 8.10
37 | COc1cc(C2c3[nH]c4ccc(Cl)cc4c3CCN2C(=O)Oc2ccc(F)cc2)ccc1OCCCn1ccnn1 (centres unmarked) [Compound 1147] | 7.40 to 8.10
38 | COc1cc(C2c3[nH]c4ccc(Cl)cc4c3CCN2C(=O)Oc2ccc(F)cc2)ccc1OCCCn1nccn1 (centres unmarked) [Compound 1148] | 7.40 to 8.10
39 | COc1ccc(C2c3[nH]c4ccc(Cl)cc4c3CCN2C(=O)OCCn2nccn2)cc1 (centres unmarked) [Compound 1156] | 7.40 to 8.10
40 | COc1ccc(C2c3[nH]c4ccc(Cl)cc4c3CCN2C(=O)OCCn2ccnn2)cc1 (centres unmarked) [Compound 1157] | 6.00 to 6.70
41 | COc1ccc(C2c3[nH]c4ccc(Cl)cc4c3CCN2C(=O)OCCn2cncn2)cc1 (centres unmarked) [Compound 1158] | < 6.00
42 | CC1(C)OC[C@H](CCOc2ccc(C3c4[nH]c5ccc(Cl)cc5c4CCN3C(=O)Oc3ccc(Cl)cc3)cc2)O1 (some centres unmarked) [Compound 1162] | > 8.10
43 | CCOC(=O)N1CCc2c([nH]c3ccc(Cl)cc23)C1c1ccc(OCC[C@H]2COC(C)(C)O2)cc1 (some centres unmarked) [Compound 1163] | > 8.10
44 | CCCOC(=O)N1CCc2c([nH]c3ccc(Cl)cc23)C1c1ccc(OCC[C@H]2COC(C)(C)O2)cc1 (some centres unmarked) [Compound 1164] | > 8.10
45 | CC(C)COC(=O)N1CCc2c([nH]c3ccc(Cl)cc23)C1c1ccc(OCC[C@H]2COC(C)(C)O2)cc1 (some centres unmarked) [Compound 1165] | > 8.10
46 | CC#CCOC(=O)N1CCc2c([nH]c3ccc(Cl)cc23)C1c1ccc(OCC[C@H]2COC(C)(C)O2)cc1 (some centres unmarked) [Compound 1166] | > 8.10
47 | CC(C)(C)COC(=O)N1CCc2c([nH]c3ccc(Cl)cc23)C1c1ccc(OCC[C@H]2COC(C)(C)O2)cc1 (some centres unmarked) [Compound 1167] | > 8.10
48 | O=C(Oc1ccc(Cl)cc1)N1CCc2c([nH]c3ccc(Cl)cc23)C1c1ccc(OCC[C@H](O)CO)cc1 (some centres unmarked) [Compound 1172] | > 8.10

Row | Structure (SMILES) | pEC50
49 | CCOC(=O)N1CCc2c([nH]c3ccc(Cl)cc23)C1c1ccc(OCC[C@H](O)CO)cc1 (some centres unmarked) [Compound 1173] | > 8.10
50 | CCCOC(=O)N1CCc2c([nH]c3ccc(Cl)cc23)C1c1ccc(OCC[C@H](O)CO)cc1 (some centres unmarked) [Compound 1174] | 7.40 to 8.10
51 | CC(C)COC(=O)N1CCc2c([nH]c3ccc(Cl)cc23)C1c1ccc(OCC[C@H](O)CO)cc1 (some centres unmarked) [Compound 1175] | 7.40 to 8.10
52 | CC#CCOC(=O)N1CCc2c([nH]c3ccc(Cl)cc23)C1c1ccc(OCC[C@H](O)CO)cc1 (some centres unmarked) [Compound 1176] | > 8.10
53 | CC(C)(C)COC(=O)N1CCc2c([nH]c3ccc(Cl)cc23)C1c1ccc(OCC[C@H](O)CO)cc1 (some centres unmarked) [Compound 1177] | > 8.10
54 | O=C(Oc1ccc(Cl)cc1)N1CCc2c([nH]c3ccc(Cl)cc23)C1c1ccc(OCCCNCCO)cc1 (centres unmarked) [Compound 1183] | > 8.10
55 | O=C(Oc1ccc(Cl)cc1)N1CCc2c([nH]c3ccc(Cl)cc23)C1c1ccc(OCCCN(CCO)CCO)cc1 (centres unmarked) [Compound 1184] | > 8.10
56 | CC(C)(C)OC(=O)N1CCc2c([nH]c3ccc(Cl)cc23)C1c1ccc(OCCCn2ccnn2)cc1 (centres unmarked) [Compound 1185] | > 8.10
57 | CC(C)(C)OC(=O)N1CCc2c([nH]c3ccc(Cl)cc23)C1c1ccc(OCCCn2nccn2)cc1 (centres unmarked) [Compound 1186] | > 8.10
58 | CC(C)(C)OC(=O)N1CCc2c([nH]c3ccc(Cl)cc23)C1c1ccc(OCCCn2cnnc2)cc1 (centres unmarked) [Compound 1187] | > 8.10
59 | CC(C)(C)OC(=O)N1CCc2c([nH]c3ccc(Cl)cc23)C1c1ccc(OCCCn2cncn2)cc1 (centres unmarked) [Compound 1188] | > 8.10
60 | CC(C)(C)OC(=O)N1CCc2c([nH]c3ccc(Cl)cc23)C1c1ccc(OCCCCl)cc1 (centres unmarked) [Compound 1189] | > 8.10
61 | Cc1ccc(C(=O)N2CCc3c([nH]c4ccc(Cl)cc34)C2c2ccc(OCCCN3CCOCC3)cc2)cc1 (centres unmarked) [Compound 1190] | 6.70 to 7.40
62 | COc1ccc(C(=O)N2CCc3c([nH]c4ccc(Cl)cc34)C2c2ccc(OCCCn3cncn3)cc2)cc1 (centres unmarked) [Compound 1191] | 6.70 to 7.40
63 | CC(C)C(=O)N1CCc2c([nH]c3ccc(Cl)cc23)C1c1ccc(OCCCN2CCOCC2)cc1 (centres unmarked) [Compound 1193] | 6.70 to 7.40
64 | CCOC(=O)N1CCc2c([nH]c3ccc(Cl)cc23)C1c1ccc(OC)c(F)c1 (centres unmarked) [Compound 1198] | 7.40 to 8.10
65 | Clc1ccc2[nH]c3c(c2c1)CCN(c1ncccn1)C3c1ccc(OCCCn2ccnn2)cc1 (centres unmarked) [Compound 1200] | > 8.10
66 | Clc1ccc2[nH]c3c(c2c1)CCN(c1ncccn1)C3c1ccc(OCCCn2cncn2)cc1 (centres unmarked) [Compound 1201] | > 8.10
67 | CCOC(=O)N1CCc2c([nH]c3ccc(Cl)cc23)[C@@H]1c1ccc(OCC[C@H]2COC(C)(C)O2)cc1 [Compound 1202] | > 8.10
68 | CC1(C)OC[C@H](CCOc2ccc([C@H]3c4[nH]c5ccc(Cl)cc5c4CCN3C(=O)Oc3ccc(Cl)cc3)cc2)O1 [Compound 1203] | > 8.10
69 | CCOC(=O)N1CCc2c([nH]c3ccc(Cl)cc23)[C@@H]1c1ccc(OCC2COC(C)(C)OC2)cc1 [Compound 1206] | > 8.10
70 | CCOC(=O)N1CCc2c([nH]c3ccc(Cl)cc23)C1c1ccc(OCC(CO)CO)cc1 (centres unmarked) [Compound 1208] | 7.40 to 8.10
71 | O=C(Oc1ccc(Cl)cc1)N1CCc2c([nH]c3ccc(Cl)cc23)[C@@H]1c1ccc(OCC(CO)CO)cc1 [Compound 1209] | > 8.10
